Source: publication PMC9354243, “The Role of Tryptophan in π Interactions in Proteins: An Experimental Approach” (Journal of the American Chemical Society, 2022)
Like-named read-outs stand apart in the source and are kept apart here.

Key:
[1] = biological target: 4,5,6,7tetraFW-LmrR (Lactococcus lactis subsp. cremoris, UniProt A2RI36); test: biochemical; type: binding; settings: for Fold decrease of LmrR binding affinity, W-LmrR to 4,5,6,7tetraFW-LmrR: equals enhancement of affinity by π–π stacking; for Kd: Binding affinity, Kd, 4,5,6,7tetraFW LmrR, SPR, mean ± SD n = 3
4,5,6,7tetraFW-LmrR, sequence (A2RI36 entry or part of it): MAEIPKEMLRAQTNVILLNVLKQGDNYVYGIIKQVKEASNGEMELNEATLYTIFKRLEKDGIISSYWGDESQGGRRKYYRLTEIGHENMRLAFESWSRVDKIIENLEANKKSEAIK
Source text: (§1) LmrR binds different drugs including Dau and RBF.[19],[20] To investigate the importance of π–π interactions for drug binding, the electron density in the π electron cloud of W96 was modulated by progressive fluorination of the W96 indole side chain.
The thermodynamics of the LmrR–Dau interaction was recently reported to be mostly entropy driven.[21] To investigate this point in more detail the temperature dependence of the LmrR–Dau interaction was studied by surface plasmon resonance (SPR) experiments at 10 and 25 °C. […]
(§2) MALDI-TOF. A purified LmrR solution (~6 mg/ml) was diluted to ~0.5 mg/ml with 100 mM NH4HCO3, and incubated with 5 µg/ml of trypsin during 2 h at 37 °C. 1 µl of digested LmrR was spotted, dried and quickly washed with 1 µl MilliQ water twice. Subsequently, 1 µl of matrix solution (10 mg/ml α- cyano-4-hydroxycinnamate (LaserBio Labs) in 50 % acetonitrile/0.1 % (v/v) trifluoroacetic acid) was spotted on top of the washed sample. Spots were measured using a Voyager DE-PRO MALDI-TOF (time of flight) instrument (Applied Biosystems). The incorporation efficiency of Trp analog was calculated after measuring the peak areas of the peptide conta ining either Trp or Trp analog.
(§3) Binding assays - surface plasmon resonance (SPR). LmrR and mutants were immobilized on a CM5 sensor chip and binding of drugs was monitored using a BIACORE3000 system. The binding responses of Dau and RBF to LmrR were measured in triplicate at both 25 °C and 10 °C, in HBS-EP running buffer (10 mM HEPES, pH 7.4, 150 mM NaCl, 50 µM EDTA, and 0.005% surfactant P-20). The binding responses were corrected by subtracting the response measured in the control lane, to which a […]
This protein, 4-oxalocrotonate tautomerase mutant Ala33Asp15 was a gift of J.-Y. van der Meer. Steady state responses after injection

[2] = biological target: 5,6,7triFW-LmrR (Lactococcus lactis subsp. cremoris, UniProt A2RI36); test: SPR binding of drugs to immobilized 5,6,7triFW-LmrR; settings: for Kd: Binding affinity, Kd, 5,6,7triFW LmrR, SPR, mean ± SD n = 3
5,6,7triFW-LmrR, sequence (A2RI36 entry or part of it): as above
Source text: as §1, with “chain. The binding affinities of LmrR for Dau and RBF decreased upon increasing degrees of fluorination of W96 (Table 2, Figure S3). […] Dau behaved less extreme, with the kd […] 6-fold (Table 2).” for “chain.”
(§4) The thermodynamics of the LmrR–Dau interaction was recently reported to be mostly entropy driven.[21] To investigate this point in more detail the temperature dependence of the LmrR–Dau interaction was studied by surface plasmon resonance (SPR) experiments at 10 and 25 °C. […] The average ΔΔG from 6 LmrR variants is around 0.1 kJ/mol. These values imply that the temperature effects on the ΔGs are negligible, which would be in line with a low contribution of entropic factors to the Dau–LmrR interaction.
(§5) The SPR assays can also inform on the kinetics of the LmrR-drug interaction, but for the assays at 25 °C, the kon and koff rates could not be analyzed properly, because the rates were too fast at those conditions. The koff rates increase when the electron density of the π-electron cloud in W96 decreases, in support of a sizable contribution of the π–π stacking interaction to the drug binding affinity. […]
as §2, §3
(§6) This protein, 4-oxalocrotonate tautomerase mutant Ala33Asp15 was a gift of J.-Y. van der Meer. Steady state responses after injection of serial dilutions of Dau and RBF were used for the determination of the dissociation constant (K d) values, using the BIAevaluation v.4.1 (GE Healthcare ) and GraphPad Prism v5.00 software . The One site-Total equation from GraphPad Prism software was used for the calculation of Kd as follows:
(§7) Y=Bmax*X/(Kd+X) + NS*X + Background . Equilibrium response Y is obtained at ligand concentration X.
(§8) Bmax represents the maximum specific binding response to the same sensorchip. NS is the slope of nonspecific binding in Y units divided by X units. […]
(§9) without addition of ligand. Binding free energies, ΔGs, were derived from the dissociation constant K d according to […].
(§10) Where possible, rate constants were determined using the BIAevaluation v.4.1 (GE Healthcare ) software. k off values were determined by fitting a 1:1 (Langmuir ) binding model . Each koff value is the average of 3 determinations.

[3] = biological target: W-LmrR (Lactococcus lactis subsp. cremoris, UniProt A2RI36); test: SPR binding of drugs to immobilized wild type LmrR (W-LmrR); settings: for Contribution of the π–π interactions to the total binding energy: extrapolation with 4,5,6,7tetraFW as baseline; for Kd: W (wild type) LmrR, SPR, mean ± SD n = 3
W-LmrR, sequence (A2RI36 entry or part of it): as above
Source text: as §1, with “chain. The binding affinities of LmrR for Dau and RBF decreased upon increasing degrees of fluorination of W96 (Table 2, Figure S3). […] Dau behaved less extreme, with the kd […] 6-fold (Table 2).” for “chain.”
as §4, §5, §2, §3, §6, §7, §8, §9, §10

[4] = biological target: 5,6diFW-LmrR (Lactococcus lactis subsp. cremoris, UniProt A2RI36); test: SPR binding of drugs to immobilized 5,6diFW-LmrR; settings: for Kd: Binding affinity, Kd, 5,6diFW LmrR, SPR, mean ± SD n = 3
5,6diFW-LmrR, sequence (A2RI36 entry or part of it): as above
Source text: as §1, with “chain. The binding affinities of LmrR for Dau and RBF decreased upon increasing degrees of fluorination of W96 (Table 2, Figure S3). […] Dau behaved less extreme, with the kd […] 6-fold (Table 2).” for “chain.”
as §4, §5, §2, §3, §6, §7, §8, §9, §10

[5] = biological target: LmrR labeled with 5MeW (Lactococcus lactis subsp. cremoris, UniProt A2RI36); test: SPR binding of drugs to immobilized LmrR labeled with 5MeW; settings: for Kd: Binding affinity, SPR, mean ± SD n = 3
LmrR labeled with 5MeW, sequence (A2RI36 entry or part of it): as above
Source text: as §1, with “chain. The binding affinities of LmrR for Dau and RBF decreased upon increasing degrees of fluorination of W96 (Table 2, Figure S3). […] Dau behaved less extreme, with the kd […] 6-fold (Table 2).” for “chain.”
as §4, §5, §2, §3, §6, §7, §8, §9, §10

[6] = biological target: 5FW-LmrR (Lactococcus lactis subsp. cremoris, UniProt A2RI36); test: SPR binding of drugs to immobilized 5FW-LmrR; settings: for Kd: Binding affinity, SPR, mean ± SD n = 3
5FW-LmrR, sequence (A2RI36 entry or part of it): as above
Source text: as §1, with “chain. The binding affinities of LmrR for Dau and RBF decreased upon increasing degrees of fluorination of W96 (Table 2, Figure S3). […] Dau behaved less extreme, with the kd […] 6-fold (Table 2).” for “chain.”
as §4, §5, §2, §3, §6, §7, §8, §9, §10

[7] = 4,5,6,7tetraFW LmrR, 25 °C, derived from Kd
[8] = 5,6,7triFW LmrR, 25 °C, derived from Kd
[9] = 5,6diFW LmrR, 25 °C, derived from Kd
[10] = 5MeW LmrR, 25 °C, derived from Kd
[11] = 5FW LmrR, 25 °C, derived from Kd

SMILES: COc1cccc2c1C(=O)c1c(O)c3c(c(O)c1C2=O)C[C@@](O)(C(C)=O)C[C@@H]3O[C@H]1C[C@H](N)[C@H](O)[C@H](C)O1 [Dau, Daunomycin]
- koff [1]: 1.5 ± 0.09 s⁻¹
- ΔΔG, ΔG10 °C – ΔG25 °C ([1]; 4,5,6,7tetraFW LmrR): 0.072 kcal/mol
- Free energy of ligand binding ΔG10 °C ([1]; 4,5,6,7tetraFW LmrR, 10 °C, derived from Kd): –31.3 kJ/mol
- Free energy of ligand binding ΔG25 °C [1, 7]: –31.6 kJ/mol
- Fold decrease of LmrR binding affinity, W-LmrR to 4,5,6,7tetraFW-LmrR ([1]; 25 °C): 6 fold
- Kd ([1]; 10 °C): 1680 ± 70 nM
- Kd ([1]; 25 °C): 2880 ± 500 nM
- koff [2]: 0.8 ± 0.1 s⁻¹
- ΔΔG, ΔG10 °C – ΔG25 °C ([2]; 5,6,7triFW LmrR): –0.4 kJ/mol
- Free energy of ligand binding ΔG10 °C ([2]; 5,6,7triFW LmrR, 10 °C, derived from Kd): –33.7 kJ/mol
- Free energy of ligand binding ΔG25 °C [2, 8]: –33.3 kJ/mol
- Kd ([2]; 10 °C): 590 ± 60 nM
- Kd ([2]; 25 °C): 1440 ± 100 nM
- koff [3]: 0.4 ± 0.07 s⁻¹
- Contribution of the π–π interactions as share of the total binding energy ([3]; 25 °C): 13%
- Contribution of the π–π interactions to the total binding energy ([3]; 25 °C): -1.15 kcal/mol
- Kd ([3]; Binding affinity, Kd, 10 °C): 315 ± 40 nM
- Kd ([3]; Binding affinity, Kd, 25 °C): 450 ± 50 nM
- ΔΔG, ΔG10 °C – ΔG25 °C ([3]; W LmrR): 0.22 kcal/mol
- Free energy of ligand binding ΔG10 °C ([3]; W LmrR, 10 °C, derived from Kd): –35.2 kJ/mol
- Free energy of ligand binding ΔG25 °C ([3]; W LmrR, 25 °C, derived from Kd): –36.2 kJ/mol
- ΔΔG, ΔG10 °C – ΔG25 °C ([4]; 5,6diFW LmrR): 0.048 kcal/mol
- Free energy of ligand binding ΔG10 °C ([4]; 5,6diFW LmrR, 10 °C, derived from Kd): –33.9 kJ/mol
- Free energy of ligand binding ΔG25 °C [4, 9]: –34.1 kJ/mol
- Kd ([4]; 10 °C): 560 ± 50 nM
- Kd ([4]; 25 °C): 1050 ± 60 nM
- koff [5]: 0.2 ± 0.04 s⁻¹
- ΔΔG, ΔG10 °C – ΔG25 °C ([5]; 5MeW LmrR): –1.1 kJ/mol
- Free energy of ligand binding ΔG10 °C ([5]; 5MeW LmrR, 10 °C, derived from Kd): –37.8 kJ/mol
- Free energy of ligand binding ΔG25 °C [5, 10]: –36.7 kJ/mol
- Kd ([5]; 5MeW LmrR, 10 °C): 104 ± 5 nM
- Kd ([5]; 5MeW LmrR, 25 °C): 370 ± 30 nM
- koff [6]: 0.6 ± 0.001 s⁻¹
- ΔΔG, ΔG10 °C – ΔG25 °C ([6]; 5FW LmrR): 0.22 kcal/mol
- Free energy of ligand binding ΔG10 °C ([6]; 5FW LmrR, 10 °C, derived from Kd): –35.5 kJ/mol
- Free energy of ligand binding ΔG25 °C [6, 11]: –36.4 kJ/mol
- Kd ([6]; 5FW LmrR, 10 °C): 280 ± 40 nM
- Kd ([6]; 5FW LmrR, 25 °C): 430 ± 80 nM

SMILES: Cc1cc2nc3c(=O)[nH]c(=O)nc-3n(C[C@H](O)[C@H](O)[C@H](O)CO)c2cc1C [RBF, riboflavin]
- Free energy of ligand binding ΔG25 °C [1, 7]: –25.7 kJ/mol
- Fold decrease of LmrR binding affinity, W-LmrR to 4,5,6,7tetraFW-LmrR ([1]; 25 °C): 70 fold
- Kd ([1]; 25 °C): 33400 ± 16000 nM
- Free energy of ligand binding ΔG25 °C [2, 8]: –29.0 kJ/mol
- Kd ([2]; 25 °C): 8370 ± 200 nM
- Contribution of the π–π interactions as share of the total binding energy ([3]; 25 °C): 29%
- Contribution of the π–π interactions to the total binding energy ([3]; 25 °C): -2.51 kcal/mol
- Kd ([3]; 25 °C, read-out: Binding affinity, Kd): 460 ± 50 nM
- Free energy of ligand binding ΔG25 °C ([3]; W LmrR, 25 °C, derived from Kd): –36.2 kJ/mol
- Free energy of ligand binding ΔG25 °C [4, 9]: –30.2 kJ/mol
- Kd ([4]; 25 °C): 4990 ± 60 nM
- Free energy of ligand binding ΔG25 °C [5, 10]: –36.6 kJ/mol
- Kd ([5]; 5MeW LmrR, 25 °C): 380 ± 8 nM
- Free energy of ligand binding ΔG25 °C [6, 11]: –34.3 kJ/mol
- Kd ([6]; 5FW LmrR, 25 °C): 970 ± 50 nM
